The values that follow come from EP4722207A1, “OXOISOINDOLINYL-SUBSTITUTED TETRAHYDROPYRIMIDINEDIONE DERIVATIVE AND USE THEREOF” (Gluetacs Therapeutics (Shanghai) Co., Ltd., priority 2023, dated 2024).

Molecules are shown by their SMILES.

What all share (type): cell-based
Common to all, as to details: compounds at 50 nM and 500 nM, 24 hours

In experiment [1] the target is T1, WEE1 (Homo sapiens, UniProt P30291+Q96SW2).
T1 construct: effects of the compounds of the present disclosure on the expression of target proteins in cells; endogenous in cells; host or cells: human PBMCs (hPBMCs)
Briefly: Western-blot assay, substrate protein degradation in hPBMCs: WEE1. How it is done:
(§1) Conventional Western blot assay was performed to evaluate the effects of the compounds of the present disclosure on the expression of target proteins in cells. • (1) Cell Seeding and Protein Harvesting: Human peripheral blood mononuclear cells (hPBMCs) at a density of 1x10^6 cells/mL were thawed according to the PBMC Recovery Protocol (Milecell Biotechnologies Inc, Shanghai). […] After 24 hours of compounds treatment, cells were harvested and lysed in RIPA protein lysate containing protease inhibitors on ice for 30 min, followed by centrifugation. The supernatant was aspirated as the extracted total cell protein. The protein concentration of the supernatant was determined using the conventional BCA (Bicinchoninic Acid) assay. • (2) To the collected supernatant, 5X SDS sample loading buffer was added, followed by denaturation at 95°C for 5 minutes. The denatured samples were then separated by SDS-PAGE electrophoresis on a polyacrylamide gel. Proteins were transferred to a nitrocellulose membrane (0.45 µm NC membrane), blocked with blocking buffer at room temperature for 1 hour, and subjected to antibody incubation and development procedures according to the antibody manufacturer's instructions (Cell Signaling Technology).
(§2) Half-Maximal Degradation Concentration value (the drug concentration required for degrading proteins by 50%, abbreviated as DC50) reads method: comparing the grayscale values of Western blot bands from drug-treated samples with those from blank DMSO-treated controls, and identifying the drug concentration range at which the grayscale value is half that of the DMSO-treated control bands.
(§3) DC50 values can be calculated using ImageJ software to measure grayscale values of Western blot bands from drug-treated samples. The concentration-response curve is fitted to estimate the drug concentration corresponding to half the grayscale value.
(§4) Target protein remaining (%) refers to the percentage of target protein remaining in cells after treatment with protein degrader compounds.
(§5) Calculation method for target protein remaining (%): Use ImageJ software to measure grayscale values of Western blot bands from drug (protein degrader)-treated samples. The grayscale value of drug-treated bands is divided by that of internal control protein bands, and the resulting quotient is normalized to obtain the relative percentage of remaining target protein after protein degrader treatment. Target protein degradation rate(%) = 1−target protein remaining(%). [formula]

Experiment [2] deals with T2, IKZF1 (Homo sapiens, UniProt Q13422+Q96SW2).
T2 construct: effects of the compounds of the present disclosure on the expression of target proteins in cells; endogenous in cells; host or cells: human PBMCs (hPBMCs)
Briefly: Western-blot assay, substrate protein degradation in hPBMCs: IKZF1. How it is done:
as §1, §2, §3, §4, §5

The target of experiment [3] is T3, IKZF2 (Homo sapiens, UniProt Q96SW2+Q9UKS7).
T3 construct: effects of the compounds of the present disclosure on the expression of target proteins in cells; endogenous in cells; host or cells: human PBMCs (hPBMCs)
Kind of experiment: Western-blot assay, substrate protein degradation in hPBMCs: IKZF2. Here is the method:
as §1, §2, §3, §4, §5

Experiment [4] concerns the target T4, IKZF3 (Homo sapiens, UniProt Q96SW2+Q9UKT9).
T4 construct: effects of the compounds of the present disclosure on the expression of target proteins in cells; endogenous in cells; host or cells: human PBMCs (hPBMCs)
Kind of experiment: Western-blot assay, substrate protein degradation in hPBMCs: IKZF3. Here is the method:
as §1, §2, §3, §4, §5

Experiment [5] concerns the target T5, CK1α (Homo sapiens, UniProt P48729+Q96SW2).
T5 construct: effects of the compounds of the present disclosure on the expression of target proteins in cells; endogenous in cells; host or cells: human PBMCs (hPBMCs)
Briefly: Western-blot assay, substrate protein degradation in hPBMCs: CK1α. Here is the method: as §1, §2, §3, §4, §5

Experiment [6] deals with T6, GSPT1 (Homo sapiens, UniProt P15170+Q96SW2).
T6 construct: effects of the compounds of the present disclosure on the expression of target proteins in cells; endogenous in cells; host or cells: human PBMCs (hPBMCs)
Briefly: Western-blot assay, substrate protein degradation in hPBMCs: GSPT1. Here is the method:
as §1, §2, §3, §4, §5

T3 sequence (Q9UKS7 whole entry): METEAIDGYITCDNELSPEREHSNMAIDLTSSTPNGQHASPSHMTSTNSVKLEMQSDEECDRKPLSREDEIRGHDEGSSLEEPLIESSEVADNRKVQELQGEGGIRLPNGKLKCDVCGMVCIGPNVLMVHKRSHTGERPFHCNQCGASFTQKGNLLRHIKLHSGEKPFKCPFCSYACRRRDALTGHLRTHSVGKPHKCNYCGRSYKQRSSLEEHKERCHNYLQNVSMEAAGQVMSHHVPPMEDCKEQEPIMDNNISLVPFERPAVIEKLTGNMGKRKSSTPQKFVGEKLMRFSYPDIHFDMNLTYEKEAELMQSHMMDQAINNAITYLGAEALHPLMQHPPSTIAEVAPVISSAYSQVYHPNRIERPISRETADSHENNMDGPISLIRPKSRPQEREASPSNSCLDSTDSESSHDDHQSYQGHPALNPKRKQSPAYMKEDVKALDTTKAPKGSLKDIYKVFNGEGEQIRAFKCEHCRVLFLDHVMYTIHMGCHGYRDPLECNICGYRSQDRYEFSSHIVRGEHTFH
T3 sequence (Q96SW2 whole entry): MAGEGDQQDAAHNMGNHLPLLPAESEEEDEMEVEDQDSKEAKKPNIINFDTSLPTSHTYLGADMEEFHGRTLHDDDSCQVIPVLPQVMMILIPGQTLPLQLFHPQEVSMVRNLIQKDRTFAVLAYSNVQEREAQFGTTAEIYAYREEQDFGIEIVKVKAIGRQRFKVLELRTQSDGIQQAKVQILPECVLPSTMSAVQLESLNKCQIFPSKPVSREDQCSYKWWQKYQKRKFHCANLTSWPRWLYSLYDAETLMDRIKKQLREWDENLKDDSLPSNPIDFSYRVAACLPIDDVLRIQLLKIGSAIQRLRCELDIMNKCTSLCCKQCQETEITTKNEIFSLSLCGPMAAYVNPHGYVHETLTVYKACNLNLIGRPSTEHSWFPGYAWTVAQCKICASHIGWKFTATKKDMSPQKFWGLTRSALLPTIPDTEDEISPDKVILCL
T3 sequence (Q16531 whole entry partner): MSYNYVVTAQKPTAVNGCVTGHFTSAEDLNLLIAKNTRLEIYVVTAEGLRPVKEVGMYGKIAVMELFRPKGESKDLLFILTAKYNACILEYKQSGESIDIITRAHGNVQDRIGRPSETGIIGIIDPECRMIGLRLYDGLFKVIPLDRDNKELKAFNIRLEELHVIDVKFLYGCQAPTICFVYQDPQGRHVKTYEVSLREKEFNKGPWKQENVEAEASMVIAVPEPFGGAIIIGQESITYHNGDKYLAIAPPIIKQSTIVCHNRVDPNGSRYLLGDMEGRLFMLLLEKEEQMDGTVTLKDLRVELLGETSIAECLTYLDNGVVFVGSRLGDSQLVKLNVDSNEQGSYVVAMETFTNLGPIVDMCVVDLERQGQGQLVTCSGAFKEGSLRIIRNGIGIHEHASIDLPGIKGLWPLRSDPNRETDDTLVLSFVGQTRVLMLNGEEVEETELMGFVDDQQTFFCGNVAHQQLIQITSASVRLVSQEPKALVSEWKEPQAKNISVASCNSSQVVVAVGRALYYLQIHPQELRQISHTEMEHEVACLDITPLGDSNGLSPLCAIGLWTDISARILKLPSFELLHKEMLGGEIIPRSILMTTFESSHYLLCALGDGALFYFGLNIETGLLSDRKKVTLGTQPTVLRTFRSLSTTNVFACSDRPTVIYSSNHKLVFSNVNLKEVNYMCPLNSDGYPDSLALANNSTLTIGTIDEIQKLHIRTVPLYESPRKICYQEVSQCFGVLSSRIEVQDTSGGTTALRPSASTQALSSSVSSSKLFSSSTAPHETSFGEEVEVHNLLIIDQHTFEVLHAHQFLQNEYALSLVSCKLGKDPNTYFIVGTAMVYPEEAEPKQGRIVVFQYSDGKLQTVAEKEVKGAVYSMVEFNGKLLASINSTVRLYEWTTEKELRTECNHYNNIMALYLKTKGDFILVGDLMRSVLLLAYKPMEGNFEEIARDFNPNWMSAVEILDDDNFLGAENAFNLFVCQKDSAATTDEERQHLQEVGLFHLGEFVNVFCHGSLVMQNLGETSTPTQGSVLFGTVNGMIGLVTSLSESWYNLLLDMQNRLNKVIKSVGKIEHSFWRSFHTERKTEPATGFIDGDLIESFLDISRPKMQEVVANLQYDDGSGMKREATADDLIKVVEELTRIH
T4 sequence (Q9UKT9 whole entry): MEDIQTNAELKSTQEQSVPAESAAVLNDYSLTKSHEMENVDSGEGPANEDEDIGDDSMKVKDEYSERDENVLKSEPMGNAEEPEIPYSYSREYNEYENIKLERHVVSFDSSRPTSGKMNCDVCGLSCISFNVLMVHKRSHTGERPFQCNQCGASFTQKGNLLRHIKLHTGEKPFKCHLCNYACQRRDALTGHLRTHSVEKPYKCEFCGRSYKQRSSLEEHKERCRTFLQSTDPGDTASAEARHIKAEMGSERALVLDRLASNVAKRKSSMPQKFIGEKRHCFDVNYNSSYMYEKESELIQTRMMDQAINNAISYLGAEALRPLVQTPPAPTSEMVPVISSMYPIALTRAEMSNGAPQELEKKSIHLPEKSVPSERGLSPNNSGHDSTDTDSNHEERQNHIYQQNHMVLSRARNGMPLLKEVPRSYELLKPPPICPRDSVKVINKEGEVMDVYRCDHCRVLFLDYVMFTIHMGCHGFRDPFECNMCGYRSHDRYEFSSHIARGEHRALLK
T4 sequence (Q96SW2 whole entry): as the sequence (Q96SW2 whole entry) above
T4 sequence (Q16531 whole entry partner): as the sequence (Q16531 whole entry partner) above
T2 sequence (Q13422 whole entry): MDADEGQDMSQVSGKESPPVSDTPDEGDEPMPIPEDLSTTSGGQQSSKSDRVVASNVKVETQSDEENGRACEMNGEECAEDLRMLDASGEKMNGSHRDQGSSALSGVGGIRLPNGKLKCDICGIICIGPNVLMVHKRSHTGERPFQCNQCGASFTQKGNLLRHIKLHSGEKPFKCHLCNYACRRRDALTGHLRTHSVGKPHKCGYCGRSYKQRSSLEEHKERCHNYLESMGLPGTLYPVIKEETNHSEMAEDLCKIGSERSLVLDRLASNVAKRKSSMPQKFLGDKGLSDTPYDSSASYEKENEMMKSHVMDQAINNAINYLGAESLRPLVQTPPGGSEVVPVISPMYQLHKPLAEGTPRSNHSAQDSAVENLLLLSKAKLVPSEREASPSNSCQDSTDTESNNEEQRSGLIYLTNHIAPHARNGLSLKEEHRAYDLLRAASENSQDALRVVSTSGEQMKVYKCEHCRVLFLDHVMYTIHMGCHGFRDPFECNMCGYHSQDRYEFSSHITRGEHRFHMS
T2 sequence (Q96SW2 whole entry): as the sequence (Q96SW2 whole entry) above
T2 sequence (Q16531 whole entry partner): as the sequence (Q16531 whole entry partner) above
T5 sequence (P48729 whole entry): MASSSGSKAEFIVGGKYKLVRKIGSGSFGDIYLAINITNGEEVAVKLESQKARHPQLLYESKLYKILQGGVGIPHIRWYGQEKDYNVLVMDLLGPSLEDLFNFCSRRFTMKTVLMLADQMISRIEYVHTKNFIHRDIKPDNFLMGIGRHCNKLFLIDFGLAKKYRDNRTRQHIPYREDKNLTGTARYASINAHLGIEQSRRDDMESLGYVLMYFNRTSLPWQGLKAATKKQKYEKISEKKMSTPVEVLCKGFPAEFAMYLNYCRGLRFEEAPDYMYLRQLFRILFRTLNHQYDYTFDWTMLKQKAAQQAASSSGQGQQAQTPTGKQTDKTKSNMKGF
T5 sequence (Q96SW2 whole entry): as the sequence (Q96SW2 whole entry) above
T5 sequence (Q16531 whole entry partner): as the sequence (Q16531 whole entry partner) above
T6 sequence (P15170 whole entry): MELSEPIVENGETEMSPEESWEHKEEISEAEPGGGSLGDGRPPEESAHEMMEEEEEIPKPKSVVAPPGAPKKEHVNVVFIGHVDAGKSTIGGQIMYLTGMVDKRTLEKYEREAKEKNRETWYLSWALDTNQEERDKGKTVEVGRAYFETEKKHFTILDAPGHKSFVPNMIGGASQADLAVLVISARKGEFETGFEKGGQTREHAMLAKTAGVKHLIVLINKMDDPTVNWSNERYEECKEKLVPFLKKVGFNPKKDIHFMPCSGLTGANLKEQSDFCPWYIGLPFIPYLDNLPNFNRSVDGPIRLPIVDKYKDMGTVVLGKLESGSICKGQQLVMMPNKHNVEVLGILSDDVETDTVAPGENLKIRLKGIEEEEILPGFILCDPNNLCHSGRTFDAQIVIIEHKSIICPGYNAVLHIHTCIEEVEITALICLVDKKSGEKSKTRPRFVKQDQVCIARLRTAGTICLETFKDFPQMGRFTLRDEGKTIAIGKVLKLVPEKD
T6 sequence (Q96SW2 whole entry): as the sequence (Q96SW2 whole entry) above
T6 sequence (Q16531 whole entry partner): as the sequence (Q16531 whole entry partner) above

As to `O=C1CCN(N2C(=O)c3ccc(CN4CCN(c5cccc(Cl)c5Cl)CC4)cc3C2=O)C(=O)N1` [GT-04854, 5-((4-(2,3-dichlorophenyl)piperazin-1-yl)methyl)-2-(2,4-dioxotetrahydropyrimidin-1(2H)-yl)isoindoline-1,3-dione], the “WEE1 substrate protein remaining %” value in experiment [1] is listed as “A ("A" is defined as 0% ≤ substrate protein remaining % ≤ 80%)”. Besides, the “IKZF1 substrate protein remaining %” value in experiment [2] is “A ("A" is defined as 0% ≤ substrate protein remaining % ≤ 80%)”. In experiment [3], the “IKZF2 substrate protein remaining %” value is “A ("A" is defined as 0% ≤ substrate protein remaining % ≤ 80%)”. Moreover, the “IKZF3 substrate protein remaining %” value in experiment [4] is “B ("B" is defined as 80%< substrate protein remaining %≤ 100%)”. Further, the “CK1α substrate protein remaining %” value in experiment [5] is “B ("B" is defined as 80%< substrate protein remaining %≤ 100%)”. Further, the “GSPT1 substrate protein remaining %” value in experiment [6] is recorded as “A ("A" is defined as 0% ≤ substrate protein remaining % ≤ 80%)”.

Take `O=C1CCN(N2Cc3cc(CN4CCC(c5noc6cc(F)ccc56)CC4)ccc3C2=O)C(=O)N1` [GT-04864, 1-(5-((4-(6-fluorobenzo[d]isoxazol-3-yl)piperidin-1-yl)methyl)-1-oxoisoindolin-2-yl)dihydropyrimidine-2,4(1H,3H)-dione]: the “WEE1 substrate protein remaining %” value in experiment [1] is given as “B ("B" is defined as 80%< substrate protein remaining %≤ 100%)”. Further, the “IKZF1 substrate protein remaining %” value in experiment [2] is recorded as “A ("A" is defined as 0% ≤ substrate protein remaining % ≤ 80%)”. For the same compound, in experiment [3], the “IKZF2 substrate protein remaining %” value is reported as “B ("B" is defined as 80%< substrate protein remaining %≤ 100%)”. The “IKZF3 substrate protein remaining %” value in experiment [4] is “B ("B" is defined as 80%< substrate protein remaining %≤ 100%)”. Besides, the “CK1α substrate protein remaining %” value in experiment [5] was “B ("B" is defined as 80%< substrate protein remaining %≤ 100%)”. In experiment [6], the “GSPT1 substrate protein remaining %” value is listed as “A ("A" is defined as 0% ≤ substrate protein remaining % ≤ 80%)”.

Take `O=C1CCN(N2Cc3cc(CN4CCN(c5ncccc5C(F)(F)F)CC4)ccc3C2=O)C(=O)N1` [GT-05174, 1-(1-oxo-5-((4-(3-(trifluoromethyl)pyridin-2-yl)piperazin-1-yl)methyl)isoindolin-2-yl)dihydropyrimidine-2,4(1H,3H)-dione]: in experiment [2], the “IKZF1 substrate protein remaining %” value is “B ("B" is defined as 80%< substrate protein remaining %≤ 100%)”. Besides, the “IKZF3 substrate protein remaining %” value in experiment [4] is given as “B ("B" is defined as 80%< substrate protein remaining %≤ 100%)”. For the same compound, the “CK1α substrate protein remaining %” value in experiment [5] is listed as “B ("B" is defined as 80%< substrate protein remaining %≤ 100%)”.

Regarding `O=C1CCN(N2Cc3cc(CN4CCN(c5cccc(C(F)(F)F)n5)CC4)ccc3C2=O)C(=O)N1` [GT-05175, 1-(1-oxo-5-((4-(6-(trifluoromethyl)pyridin-2-yl)piperazin-1-yl)methyl)isoindolin-2-yl)dihydropyrimidine-2,4(1H,3H)-dione], the “WEE1 substrate protein remaining %” value in experiment [1] is reported as “A ("A" is defined as 0% ≤ substrate protein remaining % ≤ 80%)”. Further, the “IKZF1 substrate protein remaining %” value in experiment [2] is “B ("B" is defined as 80%< substrate protein remaining %≤ 100%)”. In addition, the “IKZF2 substrate protein remaining %” value in experiment [3] is listed as “B ("B" is defined as 80%< substrate protein remaining %≤ 100%)”. Also, the “GSPT1 substrate protein remaining %” value in experiment [6] is “A ("A" is defined as 0% ≤ substrate protein remaining % ≤ 80%)”.

With `O=C1CCN(N2Cc3cc(CN4CCN(c5ccc(C(F)(F)F)cn5)CC4)ccc3C2=O)C(=O)N1` [GT-05176, 1-(1-oxo-5-((4-(5-(trifluoromethyl)pyridin-2-yl)piperazin-1-yl)methyl)isoindolin-2-yl)dihydropyrimidine-2,4(1H,3H)-dione], the “IKZF1 substrate protein remaining %” value in experiment [2] is “B ("B" is defined as 80%< substrate protein remaining %≤ 100%)”. Further, the “IKZF2 substrate protein remaining %” value in experiment [3] is reported as “B ("B" is defined as 80%< substrate protein remaining %≤ 100%)”. For the same compound, the “CK1α substrate protein remaining %” value in experiment [5] was “B ("B" is defined as 80%< substrate protein remaining %≤ 100%)”.

Take `O=C1CCN(N2C(=O)c3ccc(CN4CCN(c5ccccn5)CC4)cc3C2=O)C(=O)N1` [GT-05351, 2-(2,4-dioxotetrahydropyrimidin-1(2H)-yl)-5-((4-(pyridin-2-yl)piperazin-1-yl)methyl)isoindoline-1,3-dione]: the “IKZF1 substrate protein remaining %” value in experiment [2] was “B ("B" is defined as 80%< substrate protein remaining %≤ 100%)”. In addition, the “IKZF2 substrate protein remaining %” value in experiment [3] is given as “A ("A" is defined as 0% ≤ substrate protein remaining % ≤ 80%)”. Also, the “IKZF3 substrate protein remaining %” value in experiment [4] was “B ("B" is defined as 80%< substrate protein remaining %≤ 100%)”. Also, the “CK1α substrate protein remaining %” value in experiment [5] is recorded as “B ("B" is defined as 80%< substrate protein remaining %≤ 100%)”.

With `O=C1CCN(N2C(=O)c3ccc(CN4CCN(c5cccc(Cl)n5)CC4)cc3C2=O)C(=O)N1` [GT-05353, 5-((4-(6-chloropyridin-2-yl)piperazin-1-yl)methyl)-2-(2,4-dioxotetrahydropyrimidin-1(2H)-yl)isoindoline-1,3-dione], the “IKZF1 substrate protein remaining %” value in experiment [2] was “B ("B" is defined as 80%< substrate protein remaining %≤ 100%)”. Further, in experiment [3], the “IKZF2 substrate protein remaining %” value is on record as “B ("B" is defined as 80%< substrate protein remaining %≤ 100%)”. Further, the “IKZF3 substrate protein remaining %” value in experiment [4] is “B ("B" is defined as 80%< substrate protein remaining %≤ 100%)”. Also, the “CK1α substrate protein remaining %” value in experiment [5] is “B ("B" is defined as 80%< substrate protein remaining %≤ 100%)”. In addition, in experiment [6], the “GSPT1 substrate protein remaining %” value is “A ("A" is defined as 0% ≤ substrate protein remaining % ≤ 80%)”.

Turning to `O=C1CCN(N2C(=O)c3ccc(CN4CCN(c5cc(Cl)ccn5)CC4)cc3C2=O)C(=O)N1` [GT-05354, 5-((4-(4-chloropyridin-2-yl)piperazin-1-yl)methyl)-2-(2,4-dioxotetrahydropyrimidin-1(2H)-yl)isoindoline-1,3-dione], in experiment [2], the “IKZF1 substrate protein remaining %” value was “B ("B" is defined as 80%< substrate protein remaining %≤ 100%)”. The “CK1α substrate protein remaining %” value in experiment [5] is given as “B ("B" is defined as 80%< substrate protein remaining %≤ 100%)”. The “GSPT1 substrate protein remaining %” value in experiment [6] was “A ("A" is defined as 0% ≤ substrate protein remaining % ≤ 80%)”.

For the compound `O=C1CCN(N2C(=O)c3ccc(CN4CCN(c5ncccc5F)CC4)cc3C2=O)C(=O)N1` [GT-05355, 2-(2,4-dioxotetrahydropyrimidin-1(2H)-yl)-5-((4-(3-fluoropyridin-2-yl)piperazin-1-yl)methyl)isoindoline-1,3-dione], in experiment [1], the “WEE1 substrate protein remaining %” value is on record as “B ("B" is defined as 80%< substrate protein remaining %≤ 100%)”. In addition, the “IKZF1 substrate protein remaining %” value in experiment [2] was “B ("B" is defined as 80%< substrate protein remaining %≤ 100%)”. Further, the “IKZF3 substrate protein remaining %” value in experiment [4] was “B ("B" is defined as 80%< substrate protein remaining %≤ 100%)”. Besides, the “CK1α substrate protein remaining %” value in experiment [5] is given as “B ("B" is defined as 80%< substrate protein remaining %≤ 100%)”. Also, the “GSPT1 substrate protein remaining %” value in experiment [6] is “A ("A" is defined as 0% ≤ substrate protein remaining % ≤ 80%)”.

Take `O=C1CCN(N2Cc3cc(CN4CCN(c5ncc(Cl)cc5Cl)CC4)ccc3C2=O)C(=O)N1` [GT-05356, 1-(5-((4-(3,5-dichloropyridin-2-yl)piperazin-1-yl)methyl)-1-oxoisoindolin-2-yl)dihydropyrimidine-2,4(1H,3H)-dione]: in experiment [2], the “IKZF1 substrate protein remaining %” value is recorded as “B ("B" is defined as 80%< substrate protein remaining %≤ 100%)”. In experiment [4], the “IKZF3 substrate protein remaining %” value is “B ("B" is defined as 80%< substrate protein remaining %≤ 100%)”. In experiment [5], the “CK1α substrate protein remaining %” value was “B ("B" is defined as 80%< substrate protein remaining %≤ 100%)”.

As to `O=C1CCN(N2Cc3cc(CN4CCN(c5nccc(F)c5F)CC4)ccc3C2=O)C(=O)N1` [GT-05357, 1-(5-((4-(3,4-difluoropyridin-2-yl)piperazin-1-yl)methyl)-1-oxoisoindolin-2-yl)dihydropyrimidine-2,4(1H,3H)-dione], the “IKZF1 substrate protein remaining %” value in experiment [2] was “B ("B" is defined as 80%< substrate protein remaining %≤ 100%)”. The “IKZF2 substrate protein remaining %” value in experiment [3] is listed as “B ("B" is defined as 80%< substrate protein remaining %≤ 100%)”. Besides, the “IKZF3 substrate protein remaining %” value in experiment [4] was “B ("B" is defined as 80%< substrate protein remaining %≤ 100%)”. Further, the “CK1α substrate protein remaining %” value in experiment [5] is recorded as “B ("B" is defined as 80%< substrate protein remaining %≤ 100%)”.
